# Test results taken from patent US20240270748A1 (Merck Patent GmbH, priority 2021, published 2024).
# Counter-ions that a name gives are not always drawn.
# Tested on: YAP-TEAD interaction
# Assay: SK-HEP-1 reporter assay (8xTEAD responsive elements driving NanoLuc luciferase)
# Type: cell-based
# Conditions: Homo sapiens, SK-HEP1, SK-HEP-1 reporter assay; class symbols
# Experimental: To identify inhibitors of YAP-TEAD interaction, 8×TEAD responsive elements driving the NanoLuc® luciferase gene were stably integrated into SK-HEP-1 cells (ECACC #: 91091816).
# For the assay, cells were treated in duplicates with the test compounds in a 10-point dose, with the top concentration starting at 30 μM (final concentration in assay). After a 24 hour incubation at 37° C., 95% rH, and 5% CO2, a luciferase substrate/lysis reagent mix (NanoGlo™, Promega) was added to the cells, allowing the quantification of cellular luciferase activity.
# Cell Media: The cells were cultured in the following media: MEM, +10% FBS, +1× GlutaMAX, +1 mM Sodium-Pyruvate, +100 μM Non-essential amino acids, +0.1 mg/ml Hygromycin. The media used for the assay was: MEM (w/o Phenol Red), +10% FBS, +1× GlutaMAX, +1 mM Sodium-Pyruvate, +100 μM Non-essential amino acids, +0.5% Pen/Strep
# Reagents: The reagents used are listed below:
# Cell culture: The cells were examined using an inverted microscope to check for health and cell density. To dissociate adherent cells, the monolayer of cells was washed once with pre-warmed PBS. After removing the PBS, 3 ml pre-warmed Accutase® was added to a F75 flask, dispersed evenly and the flask was allowed to sit in incubator for ˜4-5 minutes.
# When a single cell suspension was obtained, 7 ml of prewarmed growth media was added and resuspended with the cells. The cell suspension was transferred to a sterile 15 ml conical centrifuge tube, and spun for 5 min at 300×g, RT. The supernatant was discarded and the pellet was resuspended in 10 ml of pre-warmed growth media.
# The total cell count was determined, and 20 μl of the desired cell number was added to each well of a 384 well plate using a Multidrop Combi. The plates were then incubated for 24 hours at 37° C., 95% rH, and 5% C02.
# Compound treatment: 24 hours after seeding, the cells were treated with compounds.
# A 1:333 dilution of compounds, diluted in DMSO, was made to get a final concentration of 0.3% DMSO per well. To transfer the compounds to the assay plate, […] was shot from Labcyte low dead volume plates to the cell plates containing 20 μl media/well with the ECHO 555 liquid handling system.
# After treatment, the cells were fed with 20 μl fresh pre-warmed assay media using a Multidrop combi.
# The assay plates were then incubated for another 24 h at 37° C., 95% rH, and 5% CO2.
# Luciferase readout: 24 h after treatment, the plates were taken out of the incubator and were allowed to equilibrate to RT. 30 μl of NanoGlo® reagent was added to the plates in the dark. Plates were shaken for 20 min on a Teleshake (˜1500 rpm) in the dark. The luminescence was then measured using an EnVision microplate reader. The IC50 values were generated using Genedata Screener®.
row,SMILES,IC50 [nM]
1,"Cn1cc2c3cc(NC(=O)Cc4cccnc4)ccc3n(-c3ccc(C(F)(F)F)cc3)c2n1 [Example C23, N-{2-methyl-8-[4-(trifluoromethyl)-phenyl]-2H,8H-pyrazolo[3,4-b]indol-5-yl}-2-(pyridin-3-yl)acetamide]",100 to 10000
2,"Cn1cc2c3cc(C(=O)N=[S@@](=O)(CCO)Cc4cccnc4)ccc3n(-c3ccc(C(F)(F)F)cc3)c2n1 (single isomer, unassigned) [Example C190]",100 to 10000
3,"CC(NC(=O)c1ccc2c(c1)c1cn(C)nc1n2-c1ccc(C(F)(F)F)cc1)c1cccc(NC(=O)OC(C)(C)C)n1 (stereo not shown) [Example C165, tert-butyl N-{6-[1-({2-methyl-8-[4-(trifluoromethyl)phenyl]-2H,8H-pyrazolo[3,4-b]indol-5-yl}formamido)ethyl]pyridin-2-yl}carbamate]",100 to 10000
4,CC(NC(=O)c1ccc2c(c1)c1cn(C)nc1n2-c1ccc(C(F)(F)F)cc1)c1ncc[nH]1 (stereo not shown) [Example B8],100 to 10000
5,"Cn1cc2c3cc(C4CC(n5nccn5)=NO4)ccc3n(-c3ccc(C(F)(F)F)cc3)c2n1 (stereo not shown) [Example C38, 2-(5-{2-methyl-8-[4-(trifluoromethyl)phenyl]-2H,8H-pyrazolo[3,4-b]indol-5-yl}-4,5-dihydro-1,2-oxazol-3-yl)-2H-1,2,3-triazole]",> 10000
6,"Cn1cc2c3cc(C(=O)N=S4(=O)CC5(CNC5)C4)ccc3n(-c3ccc(C(F)(F)F)cc3)c2n1 [Example C271, 2-methyl-N-{2-oxo-2¿6-thia-6-azaspiro[3.3]heptan-2-ylidene}-8-[4-(trifluoromethyl)phenyl]-2H,8H-pyrazolo[3,4-b]indole-5-carboxamide Formate]",100 to 10000
7,"Cn1cc2c3cc(C(=O)NCCOC4CCNC4)ccc3n(-c3ccc(C(F)(F)F)cc3)c2n1 (stereo not shown) [Example C142, 2-methyl-N-[2-(pyrrolidin-3-yloxy)ethyl]-8-[4-(trifluoromethyl)phenyl]-2H,8H-pyrazolo[3,4-b]indole-5-carboxamide]",100 to 10000
8,"Cn1nc2c3cc(C(=O)N=[S@@](=O)(CCO)Cc4ccncc4)ccc3n(-c3ccc(C(F)(F)F)cc3)c2n1 (single isomer, unassigned) [Example C266]",100 to 10000
9,"Cn1cc2c3cc(C(=O)N=S4(=O)CC(C#N)C4)ccc3n(-c3ccc(C(F)(F)F)cc3)c2n1 (stereo not shown) [Example C178, N-(3-cyano-1-oxo-1¿6-thietan-1-ylidene)-2-methyl-8-[4-(trifluoromethyl)phenyl]-2H,8H-pyrazolo[3,4-b]indole-5-carboxamide]",100 to 10000
10,"Cn1cc2c3cc(NC(=O)Cc4ccccn4)ccc3n(-c3ccc(C(F)(F)F)cc3)c2n1 [Example C22, N-{2-methyl-8-[4-(trifluoromethyl)-phenyl]-2H,8H-pyrazolo[3,4-b]indol-5-yl}-2-(pyridin-2-yl)acetamide]",> 10000
11,"Cc1snc2c1c1cc(C(=O)N3CC[C@H](O)C3)ccc1n2-c1ccc(C(F)(F)F)cc1 [Example C49, (3S)-1-{3-methyl-8-[4-(trifluoromethyl)phenyl]-8H-[1,2]thiazolo [3,4-b]indole-5-carbonyl}pyrrolidin-3-ol]",100 to 10000
12,"Cn1cnc2c1c1cc(C3CC(Br)=NO3)ccc1n2-c1ccc(C(F)(F)F)cc1 (stereo not shown) [Example C158, 3-bromo-5-{1-methyl-4-[4-(trifluoromethyl)phenyl]-1H,4H-imidazo[4,5-b]indol-7-yl}-4,5-dihydro-1,2-oxazole]",100 to 10000
13,"Cc1snc2c1c1cc(C(=O)NCc3cnccn3)ccc1n2-c1ccc(C(F)(F)F)cc1 [Example C78, 3-methyl-N-[(pyrazin-2-yl)methyl]-8-[4-(trifluoromethyl)phenyl]-8H-[1,2]thiazolo[3,4-b]indole-5-carboxamide]",10 to 100
14,"Cc1snc2c1c1cc(C(=O)N3CC[C@@H](O)C3)ccc1n2-c1ccc(C(F)(F)F)cc1 [Example C54, (3R)-1-{3-methyl-8-[4-(trifluoro-methyl)phenyl]-8H-[1,2]thiazolo[3,4-b]indole-5-carbonyl}pyrrolidin-3-ol]",100 to 10000
15,"Cn1cc2c3cc(C(=O)NC4CCNCC4(F)F)ccc3n(-c3ccc(C(F)(F)F)cc3)c2n1 (stereo not shown) [Example C217, N-(3,3-difluoropiperidin-4-yl)-2-methyl-8-[4-(trifluoromethyl)phenyl]-2H,8H-pyrazolo[3,4-b]indole-5-carboxamide]",> 10000
16,"Cn1cc2c3cc(C(=O)NC4CCNCC4)ccc3n(-c3ccc(C(F)(F)F)cc3)c2n1 [Example C203, 2-methyl-N-(piperidin-4-yl)-8-[4-(trifluoromethyl)phenyl]-2H,8H-pyrazolo[3,4-b]indole-5-carboxamide trifluoroacetate]",100 to 10000
17,"C[C@H](CO)NC(=O)c1ccc2c(c1)c1cn(C)nc1n2-c1ccc(F)cc1 [Example C155, 8-(4-fluorophenyl)-N-[(2R)-1-hydroxypropan-2-yl]-2-methyl-2H,8H-pyrazolo[3,4-b]indole-5-carboxamide]",100 to 10000
18,"CCCNS(=O)(=O)c1ccc2c(c1)c1cn(C)nc1n2-c1ccc(C(F)(F)F)cc1 [Example C71, 2-methyl-N-propyl-8-[4-(trifluoromethyl)phenyl]-2H,8H-pyrazolo[3,4-b]indole-5-sulfonamide]",100 to 10000
19,"Cn1cc2c3cc(C(=O)NC(CO)c4nncn4C)ccc3n(-c3ccc(C(F)(F)F)cc3)c2n1 (stereo not shown) [Example C267, N-[2-hydroxy-1-(4-methyl-4H-1,2,4-triazol-3-yl)ethyl]-2-methyl-8-[4-(trifluoromethyl)phenyl]-2H,8H-pyrazolo[3,4-b]indole-5-carboxamide]",100 to 10000
20,"CNCCC(C)NC(=O)c1ccc2c(c1)c1cn(C)nc1n2-c1ccc(C(F)(F)F)cc1 (stereo not shown) [Example C58, 2-methyl-N-[4-(methylamino)butan-2-yl]-8-[4-(trifluoromethyl)phenyl]-2H,8H-pyrazolo[3,4-b]indole-5-carboxamide]",100 to 10000
21,"Cc1snc2c1c1cc(C(=O)N[C@@H](CO)C(C)C)ccc1n2-c1ccc(C(F)(F)F)cc1 [Example C92, N-[(2R)-1-hydroxy-3-methylbutan-2-yl]-3-methyl-8-[4-(trifluoromethyl)phenyl]-8H-[1,2]thiazolo[3,4-b]indole-5-carboxamide]",10 to 100
22,"Cn1cc2c3cc(NC(=O)CCl)ccc3n(-c3ccc(C(F)(F)F)cc3)c2n1 [Example 23, 2-chloro-N-[2-methyl-8-[4-(trifluoromethyl)phenyl]pyrazolo[3,4-b]indol-5-yl]acetamide]",> 10000
23,"Cc1snc2c1c1cc(C(=O)N[C@H](CO)C3CCC3)ccc1n2-c1ccc(C(F)(F)F)cc1 [Example C100, N-[(1S)-1-cyclobutyl-2-hydroxyethyl]-3-methyl-8-[4-(trifluoromethyl)phenyl]-8H-[1,2]thiazolo[3,4-b]indole-5-carboxamide]",100 to 10000

# Same assay, conditions: Homo sapiens, SK-HEP1, SK-HEP-1 reporter assay; n.d. = value not detectable below threshold given in parentheses; ND = not determinable within the entire range
row,SMILES,IC50 [nM]
1,"Cn1cc2c(n1)c1cc(S(=O)(=O)N3C[C@H](O)C[C@H]3c3ccccc3)ccc1n2-c1ccc(C(F)(F)F)cc1 (single isomer, unassigned) [Example C46]",> 1000
2,"Cn1cc2c3cc(C(=O)N=S4(=O)CCC5(CC4)CC(N)CCO5)ccc3n(-c3ccc(C(F)(F)F)cc3)c2n1 (stereo not shown) [Example C143, N-{4-amino-9-oxo-1-oxa-9lambda6-thiaspiro[5.5]undecan-9-ylidene}-2-methyl-8-[4-(trifluoromethyl)phenyl]-2H,8H-pyrazolo[3,4-b]indole-5-carboxamide]",> 3200
